These results are taken from patent publication US9066971B2 (priority 2010, dated 2015).

The assay deals with mouse colon 26 cell line. It is filed as in vivo. The conditions noted are these: 18 mg/kg aspirin alone, tail vein, twice a week; day 23; compared to PBS alone. The procedure:
The shedding microvesicles derived from E. coli, P. aeruginosa, and S. enteritidis were assayed for anticancer activity. A mouse colon 26 cell line was subcutaneously injected at a dose of 1×10^6 cells into mice, and cultured. After one week, a PBS solution containing 1 μg, or 5 μg of each of the Gram-negative bacterial cell-derived microvesicles was injected at a dose of 100 μl twice a week via the tail vein into the mice which were divided into groups, each consisting of three. On day 23 after the transplantation of cancer cells, the sizes of colon cancer tissue were monitored. The volume of cancer tissue was calculated by the equation V=l×s^2/2, wherein 1 is a length of the longest axis of a tumor and s is a length of the axis perpendicular to the longest axis.
The shedding microvesicles derived from S. aureus and Lactobacillus acidophilus were assayed for anticancer activity. […] On day 23 after the transplantation of cancer cells, the sizes of colon cancer tissue were monitored. The volume of cancer tissue was calculated by the equation V=l×s^2/2, wherein 1 is a length of the longest axis of a tumor and s is a length of the axis perpendicular to the longest axis.
A mouse colon 26 cell line was subcutaneously injected at a dose of 1×10^6 cells into mice, and cultured. […] On day 23 after the transplantation of cancer cells, the sizes of colon cancer tissue were monitored. […]

Take `CC(=O)Oc1ccccc1C(=O)O` [aspirin]: the “size of colon tumors” value is “no differences in the size of colon tumors”.
